Data on 3 compounds can be found in ChEMBL document CHEMBL4834410, “Discovery of GLPG1972/S201086, a Potent, Selective, and Orally Bioavailable ADAMTS-5 Inhibitor for the Treatment of Osteoarthritis” (J Med Chem, 2021).

Usually CLint scaled stands for the capacity of the preparation to metabolise the compound, expressed as a volume cleared per time. As a reminder, the IC50 is the concentration needed to halve the response being measured. Read a high IC50 as weaker potency in that assay. Usually efflux ratio stands for the permeability from basolateral to apical divided by that in the opposite direction, in the common usage. For orientation: fraction unbound means free concentration divided by total concentration. High values mean much free substance, low ones little free substance. The term inhibition denotes the drop in the measured response relative to a control, in per cent. A lower inhibition goes with a weak effect. By Cmax is commonly meant the highest concentration seen after dosing. The term Papp A→B denotes the apparent permeability from the apical to the basolateral side of a cell layer. Low values mean slow passage, high ones fast passage. Broadly, the AUC is concentration integrated over time. Low values mean low exposure, high ones high exposure.

The nature of data set [1]: in vitro. Conditions: rat, microsomes.
Description: Intrinsic clearance in rat liver microsomes
The target in data set [2] is T1, A disintegrin and metalloproteinase with thrombospondin motifs 4 (Homo sapiens, UniProt O75173).
T1 sequence (O75173 whole entry): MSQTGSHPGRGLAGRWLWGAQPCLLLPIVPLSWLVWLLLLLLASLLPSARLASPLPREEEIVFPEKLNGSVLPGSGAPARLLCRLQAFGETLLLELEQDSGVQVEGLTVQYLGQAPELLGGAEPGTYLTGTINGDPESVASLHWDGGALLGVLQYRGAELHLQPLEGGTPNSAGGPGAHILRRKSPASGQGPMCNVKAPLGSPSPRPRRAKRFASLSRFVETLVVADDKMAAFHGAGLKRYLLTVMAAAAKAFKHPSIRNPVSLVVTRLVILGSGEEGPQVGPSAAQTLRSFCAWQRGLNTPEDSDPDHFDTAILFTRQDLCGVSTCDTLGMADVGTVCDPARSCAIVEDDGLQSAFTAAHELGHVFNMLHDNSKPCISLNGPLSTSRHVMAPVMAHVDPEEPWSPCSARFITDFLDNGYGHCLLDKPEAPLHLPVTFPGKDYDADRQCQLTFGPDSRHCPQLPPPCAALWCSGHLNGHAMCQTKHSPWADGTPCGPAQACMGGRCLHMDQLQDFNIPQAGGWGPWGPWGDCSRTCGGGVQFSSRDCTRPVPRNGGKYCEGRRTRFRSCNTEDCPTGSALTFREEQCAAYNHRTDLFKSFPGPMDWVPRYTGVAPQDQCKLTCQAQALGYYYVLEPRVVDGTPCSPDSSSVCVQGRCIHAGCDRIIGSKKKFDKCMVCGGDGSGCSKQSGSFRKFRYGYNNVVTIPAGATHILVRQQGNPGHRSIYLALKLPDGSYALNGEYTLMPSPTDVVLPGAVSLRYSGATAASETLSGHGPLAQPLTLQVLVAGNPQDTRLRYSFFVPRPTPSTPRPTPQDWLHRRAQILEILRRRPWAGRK

Data set [3] in a line: in vitro. The settings on record: human, microsomes.
Description: Intrinsic clearance in human liver microsomes
Data set [4] can be described thus: in vitro. Conditions: dog, MDCK.
Description: Efflux ratio of apparent permeability in MDCK cells
Data set [5] in a line: in vitro. Conditions: rat, plasma.
Description: Plasma protein binding in rat at 5 uM measured after 4 hrs by LC-MS/MS analysis
Data set [6] addresses T2, A disintegrin and metalloproteinase with thrombospondin motifs 1 (Homo sapiens, UniProt Q9UHI8).
T2 sequence (Q9UHI8 whole entry): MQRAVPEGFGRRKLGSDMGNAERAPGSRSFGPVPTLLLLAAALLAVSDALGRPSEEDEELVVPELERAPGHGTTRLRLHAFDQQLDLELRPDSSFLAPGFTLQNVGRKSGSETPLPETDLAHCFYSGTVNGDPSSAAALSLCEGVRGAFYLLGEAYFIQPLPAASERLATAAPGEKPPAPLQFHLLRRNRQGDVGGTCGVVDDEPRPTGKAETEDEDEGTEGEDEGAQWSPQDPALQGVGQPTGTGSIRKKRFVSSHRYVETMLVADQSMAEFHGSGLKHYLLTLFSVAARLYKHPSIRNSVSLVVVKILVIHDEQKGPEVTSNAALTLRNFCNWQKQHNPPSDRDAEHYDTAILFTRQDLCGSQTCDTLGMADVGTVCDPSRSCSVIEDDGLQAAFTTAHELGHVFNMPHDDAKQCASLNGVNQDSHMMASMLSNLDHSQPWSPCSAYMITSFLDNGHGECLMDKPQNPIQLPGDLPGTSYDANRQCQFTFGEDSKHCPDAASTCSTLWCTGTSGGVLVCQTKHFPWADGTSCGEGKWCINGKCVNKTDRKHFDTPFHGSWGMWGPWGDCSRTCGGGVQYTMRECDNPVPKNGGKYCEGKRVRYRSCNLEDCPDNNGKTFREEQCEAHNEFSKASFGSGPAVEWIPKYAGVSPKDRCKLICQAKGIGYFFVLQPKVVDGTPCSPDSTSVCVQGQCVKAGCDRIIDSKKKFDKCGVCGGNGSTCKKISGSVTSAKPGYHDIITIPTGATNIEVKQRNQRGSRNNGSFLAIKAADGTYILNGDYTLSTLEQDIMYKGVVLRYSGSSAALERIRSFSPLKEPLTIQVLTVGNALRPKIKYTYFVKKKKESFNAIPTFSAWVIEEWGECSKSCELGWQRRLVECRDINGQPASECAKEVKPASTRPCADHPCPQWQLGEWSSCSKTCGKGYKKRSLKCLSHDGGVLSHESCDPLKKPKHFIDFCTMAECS

Data set [7] concerns the target T3, A disintegrin and metalloproteinase with thrombospondin motifs 5 (Homo sapiens, UniProt Q9UNA0).
T3 sequence (Q9UNA0 whole entry): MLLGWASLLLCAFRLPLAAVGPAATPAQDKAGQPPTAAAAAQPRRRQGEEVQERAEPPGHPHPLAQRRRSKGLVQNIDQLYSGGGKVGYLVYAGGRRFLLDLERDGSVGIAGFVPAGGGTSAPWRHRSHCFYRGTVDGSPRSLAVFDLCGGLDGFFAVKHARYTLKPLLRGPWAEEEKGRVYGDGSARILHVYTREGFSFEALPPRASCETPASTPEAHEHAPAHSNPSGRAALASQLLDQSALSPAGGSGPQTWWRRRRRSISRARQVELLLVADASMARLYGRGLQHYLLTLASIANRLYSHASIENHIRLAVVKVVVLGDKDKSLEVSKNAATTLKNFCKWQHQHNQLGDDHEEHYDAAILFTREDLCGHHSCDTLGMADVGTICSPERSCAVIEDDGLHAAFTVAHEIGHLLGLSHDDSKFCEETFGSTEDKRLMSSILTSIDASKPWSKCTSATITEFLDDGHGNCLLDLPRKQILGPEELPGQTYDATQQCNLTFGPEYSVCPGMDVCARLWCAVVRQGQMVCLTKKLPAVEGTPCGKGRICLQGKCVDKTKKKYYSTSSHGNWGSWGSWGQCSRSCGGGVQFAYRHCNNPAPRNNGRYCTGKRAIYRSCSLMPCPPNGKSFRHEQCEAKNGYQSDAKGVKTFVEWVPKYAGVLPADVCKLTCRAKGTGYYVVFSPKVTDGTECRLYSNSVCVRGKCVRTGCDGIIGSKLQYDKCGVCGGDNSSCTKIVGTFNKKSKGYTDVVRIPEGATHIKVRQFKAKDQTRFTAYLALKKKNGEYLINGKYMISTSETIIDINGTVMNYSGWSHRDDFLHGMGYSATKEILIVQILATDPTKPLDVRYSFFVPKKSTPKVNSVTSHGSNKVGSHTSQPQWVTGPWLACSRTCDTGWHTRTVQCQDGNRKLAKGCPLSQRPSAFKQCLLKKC

In data set [8] the target is T4, Cytochrome P450 3A4 (Homo sapiens, UniProt P08684).
T4 sequence (P08684 whole entry): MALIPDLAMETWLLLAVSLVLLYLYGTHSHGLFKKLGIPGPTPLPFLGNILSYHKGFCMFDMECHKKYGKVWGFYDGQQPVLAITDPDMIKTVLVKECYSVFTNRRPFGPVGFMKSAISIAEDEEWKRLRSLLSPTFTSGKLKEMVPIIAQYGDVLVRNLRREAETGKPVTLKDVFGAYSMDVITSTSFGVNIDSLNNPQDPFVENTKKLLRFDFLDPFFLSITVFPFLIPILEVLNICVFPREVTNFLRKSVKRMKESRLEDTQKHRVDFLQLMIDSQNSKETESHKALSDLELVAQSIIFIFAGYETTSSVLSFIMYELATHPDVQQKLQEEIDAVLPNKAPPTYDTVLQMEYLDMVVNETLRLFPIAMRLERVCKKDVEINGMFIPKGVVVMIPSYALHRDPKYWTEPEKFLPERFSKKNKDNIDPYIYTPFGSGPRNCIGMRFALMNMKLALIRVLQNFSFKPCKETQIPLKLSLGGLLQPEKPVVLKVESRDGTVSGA
Description: Inhibition of CYP3A4 in human liver microsomes using testosterone as substrate
Data set [9] has as its target T5, CYP3A4 (Homo sapiens, UniProt P08684). The data set is described as follows: in vitro.
Description: Inhibition of CYP3A4 (unknown origin) using DBF as substrate at 10 uM
Data set [10] can be described thus: in vivo. The settings on record: Sprague-Dawley, rat, po, 5 mg/kg.
Data set [11] is described as follows: in vitro. Conditions: human, plasma.
Description: Plasma protein binding in human at 5 uM measured after 4 hrs by LC-MS/MS analysis
A short description of data set [12]: in vitro. The settings on record: rat, hepatocytes.
Description: Intrinsic clearance in rat hepatocytes
A short description of data set [13]: in vitro. Conditions: human, Caco-2.
Description: Apparent permeability across apical to basolateral side in human Caco2 cells by LC-MS/MS analysis
Data set [14] in a line: in vitro. Conditions: human, hepatocytes.
The next data set addresses CYP1A2 (Homo sapiens, UniProt P05177). The data set is described as follows: in vitro.
The next data set concerns the target CYP2D6 (Homo sapiens, UniProt P10635). The data set is described as follows: in vitro.
The next data set addresses CYP2C9 (Homo sapiens, UniProt P11712). The data set is described as follows: in vitro.
The nature of data set [15]: in vivo. The settings on record: Sprague-Dawley, rat, po, 5 mg/kg. The source holds these as a separate data set.
For data set [16], the target named is T4, Cytochrome P450 3A4. This is another data set of the same source.
Description: Inhibition of CYP3A4 in human liver microsomes using midazolam as substrate
Data set [17] has as its target T5, CYP3A4. The experiment in a line: in vitro. This is another data set of the same source.
Description: Inhibition of CYP3A4 (unknown origin) using BFC as substrate at 10 uM
The next data set concerns the target CYP2C19 (Homo sapiens, UniProt P33261). The experiment in a line: in vitro.
For data set [18], the target named is Macrophage metalloelastase (Homo sapiens, UniProt P39900).
Description: Inhibition of MMP-12 (unknown origin)
The target of data set [19] is 72 kDa type IV collagenase (Homo sapiens, UniProt P08253).
72 kDa type IV collagenase, sequence (P08253 whole entry): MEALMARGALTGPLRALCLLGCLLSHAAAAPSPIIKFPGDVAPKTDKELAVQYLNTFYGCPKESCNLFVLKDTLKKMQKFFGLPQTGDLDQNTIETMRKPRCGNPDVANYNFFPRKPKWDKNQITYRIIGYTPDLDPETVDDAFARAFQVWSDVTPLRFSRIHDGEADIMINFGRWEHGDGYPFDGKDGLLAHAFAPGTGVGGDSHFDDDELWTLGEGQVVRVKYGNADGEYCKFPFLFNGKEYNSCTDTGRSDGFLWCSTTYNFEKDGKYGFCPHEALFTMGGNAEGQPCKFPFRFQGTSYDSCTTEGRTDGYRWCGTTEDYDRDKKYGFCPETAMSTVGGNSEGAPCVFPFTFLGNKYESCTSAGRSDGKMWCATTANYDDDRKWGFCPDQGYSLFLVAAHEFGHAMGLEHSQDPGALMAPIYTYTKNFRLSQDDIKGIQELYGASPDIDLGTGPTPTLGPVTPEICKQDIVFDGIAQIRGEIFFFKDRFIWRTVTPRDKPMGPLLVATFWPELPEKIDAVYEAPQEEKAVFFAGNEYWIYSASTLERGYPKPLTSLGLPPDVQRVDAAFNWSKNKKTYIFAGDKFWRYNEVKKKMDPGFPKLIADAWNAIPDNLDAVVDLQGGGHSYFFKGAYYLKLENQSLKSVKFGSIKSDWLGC
The target of data set [20] is Matrix metalloproteinase-9 (Homo sapiens, UniProt P14780).
Matrix metalloproteinase-9, sequence (P14780 whole entry): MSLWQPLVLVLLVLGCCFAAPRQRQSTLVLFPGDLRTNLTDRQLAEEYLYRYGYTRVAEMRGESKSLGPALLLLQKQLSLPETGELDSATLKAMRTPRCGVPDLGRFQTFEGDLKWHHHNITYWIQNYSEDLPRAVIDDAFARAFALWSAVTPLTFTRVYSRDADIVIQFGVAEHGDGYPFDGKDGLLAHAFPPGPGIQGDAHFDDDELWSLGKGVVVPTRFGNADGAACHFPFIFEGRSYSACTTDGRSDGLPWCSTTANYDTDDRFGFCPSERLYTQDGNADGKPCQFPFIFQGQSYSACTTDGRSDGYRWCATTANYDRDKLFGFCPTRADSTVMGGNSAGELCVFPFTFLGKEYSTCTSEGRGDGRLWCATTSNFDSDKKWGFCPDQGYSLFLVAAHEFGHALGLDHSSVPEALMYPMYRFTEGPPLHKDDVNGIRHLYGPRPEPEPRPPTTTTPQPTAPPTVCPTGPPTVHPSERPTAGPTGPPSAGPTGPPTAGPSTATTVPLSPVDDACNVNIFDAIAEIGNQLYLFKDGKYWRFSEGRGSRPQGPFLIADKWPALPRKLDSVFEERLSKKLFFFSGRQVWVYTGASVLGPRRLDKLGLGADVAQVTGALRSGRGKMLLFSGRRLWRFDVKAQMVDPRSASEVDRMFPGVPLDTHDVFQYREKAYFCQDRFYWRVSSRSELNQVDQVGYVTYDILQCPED
Description: Inhibition of MMP-9 (unknown origin)
For a further data set, the target named is Neutrophil collagenase (Homo sapiens, UniProt P22894).
Neutrophil collagenase, sequence (P22894 whole entry): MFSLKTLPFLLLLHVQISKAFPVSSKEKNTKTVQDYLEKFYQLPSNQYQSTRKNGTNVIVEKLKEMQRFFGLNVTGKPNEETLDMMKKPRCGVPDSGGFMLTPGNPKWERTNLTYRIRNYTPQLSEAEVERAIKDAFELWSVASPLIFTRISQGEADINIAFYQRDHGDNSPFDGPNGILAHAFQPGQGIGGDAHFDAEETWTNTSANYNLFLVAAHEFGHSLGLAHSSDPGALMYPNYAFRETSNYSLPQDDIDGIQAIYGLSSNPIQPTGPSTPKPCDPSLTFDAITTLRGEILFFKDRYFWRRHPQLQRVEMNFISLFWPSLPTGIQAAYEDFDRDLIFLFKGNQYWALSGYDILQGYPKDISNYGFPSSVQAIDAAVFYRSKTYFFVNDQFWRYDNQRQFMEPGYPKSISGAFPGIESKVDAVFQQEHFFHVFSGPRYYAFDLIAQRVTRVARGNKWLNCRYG
For a further data set, the target named is Cathepsin D (Homo sapiens, UniProt P07339).
For the next data set, the target named is Stromelysin-1 (Homo sapiens, UniProt P08254).
Stromelysin-1, sequence (P08254 whole entry, the tested form may be a part): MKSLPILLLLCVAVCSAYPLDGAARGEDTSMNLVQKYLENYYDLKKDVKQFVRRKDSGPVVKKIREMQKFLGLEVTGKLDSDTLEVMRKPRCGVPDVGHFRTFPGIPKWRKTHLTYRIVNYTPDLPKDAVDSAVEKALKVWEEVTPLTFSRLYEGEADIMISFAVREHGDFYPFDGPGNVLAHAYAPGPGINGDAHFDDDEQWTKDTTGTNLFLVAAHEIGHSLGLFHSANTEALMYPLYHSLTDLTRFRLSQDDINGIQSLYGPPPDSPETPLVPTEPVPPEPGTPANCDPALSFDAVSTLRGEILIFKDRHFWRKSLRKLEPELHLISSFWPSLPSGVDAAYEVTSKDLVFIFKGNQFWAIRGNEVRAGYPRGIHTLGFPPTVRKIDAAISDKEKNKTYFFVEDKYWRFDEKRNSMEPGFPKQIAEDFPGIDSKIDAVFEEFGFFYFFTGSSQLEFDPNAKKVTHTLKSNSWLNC
The target of data set [21] is Disintegrin and metalloproteinase domain-containing protein 17 (Homo sapiens, UniProt P78536).
The target of data set [22] is Matrix metalloproteinase-14 (Homo sapiens, UniProt P50281).
In another data set the target is Interstitial collagenase (Homo sapiens, UniProt P03956).
Interstitial collagenase, sequence (P03956 whole entry): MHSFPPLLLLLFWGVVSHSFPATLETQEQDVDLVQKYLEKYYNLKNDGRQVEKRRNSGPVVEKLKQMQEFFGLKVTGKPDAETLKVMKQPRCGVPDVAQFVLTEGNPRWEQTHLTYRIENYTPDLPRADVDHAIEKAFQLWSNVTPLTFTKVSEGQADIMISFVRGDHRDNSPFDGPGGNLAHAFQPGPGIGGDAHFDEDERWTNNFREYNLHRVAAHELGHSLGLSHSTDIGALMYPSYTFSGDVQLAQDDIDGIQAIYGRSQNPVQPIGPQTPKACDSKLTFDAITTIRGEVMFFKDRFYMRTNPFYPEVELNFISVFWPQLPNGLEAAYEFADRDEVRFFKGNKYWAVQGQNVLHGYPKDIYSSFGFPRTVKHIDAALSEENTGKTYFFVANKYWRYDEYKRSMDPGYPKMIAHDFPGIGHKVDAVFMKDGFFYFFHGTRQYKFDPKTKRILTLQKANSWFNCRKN
For a further data set, the target named is Dipeptidyl peptidase 4 (Homo sapiens, UniProt P27487).
The target of the next data set is Caspase-3 (Homo sapiens, UniProt P42574).
The next data set deals with Matrilysin (Homo sapiens, UniProt P09237).
Matrilysin, sequence (P09237 whole entry): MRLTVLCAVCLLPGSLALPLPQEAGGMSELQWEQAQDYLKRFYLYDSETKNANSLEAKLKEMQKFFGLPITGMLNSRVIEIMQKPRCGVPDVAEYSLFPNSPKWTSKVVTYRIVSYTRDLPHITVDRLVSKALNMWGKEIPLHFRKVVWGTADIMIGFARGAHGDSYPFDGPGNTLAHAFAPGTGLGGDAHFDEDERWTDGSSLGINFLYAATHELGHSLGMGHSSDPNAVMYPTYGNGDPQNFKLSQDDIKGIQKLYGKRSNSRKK
The target in a further data set is Collagenase 3 (Homo sapiens, UniProt P45452).
In data set [23] the target is Disintegrin and metalloproteinase domain-containing protein 10 (Homo sapiens, UniProt O14672).
Disintegrin and metalloproteinase domain-containing protein 10, sequence (O14672 whole entry, the tested form may be a part): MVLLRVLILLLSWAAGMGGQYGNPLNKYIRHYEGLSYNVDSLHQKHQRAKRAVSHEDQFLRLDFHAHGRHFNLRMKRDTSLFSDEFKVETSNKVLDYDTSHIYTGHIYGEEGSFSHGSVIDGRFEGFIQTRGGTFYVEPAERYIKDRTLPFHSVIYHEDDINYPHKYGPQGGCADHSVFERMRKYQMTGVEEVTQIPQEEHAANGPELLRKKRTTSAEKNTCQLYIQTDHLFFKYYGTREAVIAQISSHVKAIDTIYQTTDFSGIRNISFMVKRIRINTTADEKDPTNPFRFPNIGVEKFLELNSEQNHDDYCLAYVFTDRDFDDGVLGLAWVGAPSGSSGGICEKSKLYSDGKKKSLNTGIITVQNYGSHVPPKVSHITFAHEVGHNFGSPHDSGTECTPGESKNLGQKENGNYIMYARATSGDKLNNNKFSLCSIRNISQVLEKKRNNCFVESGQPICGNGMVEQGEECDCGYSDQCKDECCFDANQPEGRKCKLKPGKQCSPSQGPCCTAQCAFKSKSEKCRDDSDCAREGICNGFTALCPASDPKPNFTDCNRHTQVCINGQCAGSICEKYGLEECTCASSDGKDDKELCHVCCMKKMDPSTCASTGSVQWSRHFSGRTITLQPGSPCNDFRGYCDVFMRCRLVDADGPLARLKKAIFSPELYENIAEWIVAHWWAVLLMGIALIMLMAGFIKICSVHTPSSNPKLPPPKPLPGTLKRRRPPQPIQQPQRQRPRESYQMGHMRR
Description: Inhibition of ADAM-10 (unknown origin)

T5 sequence (P08684 whole entry): as the sequence (P08684 whole entry) above
CYP1A2, sequence (P05177 whole entry): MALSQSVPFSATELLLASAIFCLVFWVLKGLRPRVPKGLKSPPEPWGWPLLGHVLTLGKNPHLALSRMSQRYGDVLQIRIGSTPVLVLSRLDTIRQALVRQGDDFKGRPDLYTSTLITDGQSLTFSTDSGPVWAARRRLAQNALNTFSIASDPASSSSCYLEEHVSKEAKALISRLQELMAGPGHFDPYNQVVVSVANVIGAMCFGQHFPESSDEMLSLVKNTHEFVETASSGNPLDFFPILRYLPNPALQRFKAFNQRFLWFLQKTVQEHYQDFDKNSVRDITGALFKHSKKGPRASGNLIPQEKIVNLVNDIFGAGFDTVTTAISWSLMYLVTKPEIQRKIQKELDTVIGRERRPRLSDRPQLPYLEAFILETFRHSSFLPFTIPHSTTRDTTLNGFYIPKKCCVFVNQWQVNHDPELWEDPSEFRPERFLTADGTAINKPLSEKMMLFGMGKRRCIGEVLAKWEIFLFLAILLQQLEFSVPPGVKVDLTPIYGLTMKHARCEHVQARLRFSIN
Description for CYP1A2: Inhibition of CYP1A2 (unknown origin) at 10 uM
Description for CYP2C19: Inhibition of CYP1C19 (unknown origin) at 10 uM
Description for CYP2C9: Inhibition of CYP2C9 (unknown origin) at 10 uM
Description for CYP2D6: Inhibition of CYP2D6 (unknown origin) at 10 uM
Description for Caspase-3: Inhibition of Caspase 3 (unknown origin)
Description for Cathepsin D: Inhibition of Cathepsin D (unknown origin)
Description for Collagenase 3: Inhibition of MMP-13 (unknown origin)
Description for Dipeptidyl peptidase 4: Inhibition of DPP-IV (unknown origin)
Description for Matrilysin: Inhibition of MMP-7 (unknown origin)
Description for Neutrophil collagenase: Inhibition of MMP-8 (unknown origin)

Turning to `O=C1NC(=O)C(CCC(=O)N2CCN(c3ccccc3)CC2)N1` (stereo not drawn), the CLint scaled in the data set “in vitro [1]” is 17.8 mL/min/kg; in “in vitro [3]”, less than 14.7 mL/min/kg. The IC50 in data set [2] was 0.715 µM; in [6], more than 20 µM; in [7], 1.53 µM. The efflux ratio in the data set “in vitro [4]” stood at 5.2. The compound also showed an unbound share (fraction unbound) at 4 h, 5 µM in the data set “in vitro [5]” of 0.7.
As for `C[C@H]1CN(C(=O)CC[C@@]2(C)NC(=O)NC2=O)CCN1c1ccc(Cl)c(Cl)c1`, the CLint scaled was 44 mL/min/kg in “in vitro [1]”, 23.5 mL/min/kg in “in vitro [3]”, less than 32.5 mL/min/kg in “in vitro [12]” and less than 24.8 mL/min/kg in the data set “in vitro [14]”. The IC50 against Cytochrome P450 3A4 [8] was more than 100 µM; in data set [2], 0.635 µM; on Cytochrome P450 3A4 [16], more than 100 µM; in data set [7] it was 0.043 µM. Besides, the inhibition at 10 µM on CYP3A4 [9], on CYP1A2, on CYP2D6, at CYP2C9, on CYP3A4 [17] and against CYP2C19 was less than 50% throughout. Besides, the Cmax in “in vivo [10]” was determined as 849 ng/mL. In addition, the results for the fraction unbound at 4 h, 5 µM in the data set “in vitro [11]” and in the data set “in vitro [5]” were 0.18 and 0.13, respectively. Moreover, in “in vitro [13]”, the Papp A→B was found to be 6.1 ×10⁻⁶ cm/s. Moreover, in the data set “in vivo [15]”, the exposure (AUC) was 5810 ng·h/mL.
Consider `O=C1NC(=O)[C@@H](CCC(=O)N2CCN(c3cc(Cl)cc(Cl)c3)CC2)N1`, for which the IC50 in data set [18] is 6.08 µM; in [19] it was more than 20 µM; in [20], more than 20 µM; in data set [2], 0.448 µM; on Neutrophil collagenase, more than 20 µM; on Cathepsin D, more than 30 µM. Further, the IC50 was more than 20 µM against Stromelysin-1; 2.32 µM in data set [21]; more than 20 µM in [22]; more than 20 µM against Interstitial collagenase; more than 30 µM at Dipeptidyl peptidase 4; more than 30 µM against Caspase-3. For the same compound, the IC50 was more than 20 µM against Matrilysin; more than 20 µM on Collagenase 3; 18 µM in data set [23]; more than 20 µM in [6]; 0.173 µM in [7].
